Results on 20 compounds are retold here after US12226424B2, “Target protein degradation compounds, their anti-tumor use, their intermediates and use of intermediates” (ShanghaiTech University, priority 2018, dated 2025).

SMILES strings stand for the structures. Bounds are passed on as bounds.

The test system of the first test is CDK4/6 protein. Put plainly: Western-blot determination of CDK4/6 protein degradation (DC50) in T-47D cells. It counts as cell-based, human. To be noted: 24 h drug treatment, read-out: DC50(nM)/T-47D cell line.
As for `CN(C)C(=O)c1cc2cnc(Nc3ccc(N4CCN(C(=O)CSc5cccc6c5C(=O)N(C5CCC(=O)NC5=O)C6=O)CC4)cn3)nc2n1C1CCCC1` (centres unmarked) [SIAIS219100, 7-cyclopentyl-2-((5-(4-(2-((2-(2,6-dioxopiperidin-3-yl)-1,3-dioxoisoindolin-4-yl)thio)acetyl)piperazin-1-yl)pyridin-2-yl)amino)-N,N-dimethyl-7H-pyrrolo[2,3-d]pyrimidine-6-carboxamide], the DC50 was under 0.04 nM. On the same count and under the same terms, the result for `CN(C)C(=O)c1cc2cnc(Nc3ccc(N4CCN(C(=O)CCSc5cccc6c5C(=O)N(C5CCC(=O)NC5=O)C6=O)CC4)cn3)nc2n1C1CCCC1` (centres unmarked) [SIAIS219101, 7-cyclopentyl-2-((5-(4-(3-((2-(2,6-dioxopiperidin-3-yl)-1,3-dioxoisoindolin-4-yl)thio)propanoyl)piperazin-1-yl)pyridin-2-yl)amino)-N,N-dimethyl-7H-pyrrolo[2,3-d]pyrimidine-6-carboxamide] reads under 100 nM; that for `CN(C)C(=O)c1cc2cnc(Nc3ccc(N4CCN(C(=O)CCCSc5cccc6c5C(=O)N(C5CCC(=O)NC5=O)C6=O)CC4)cn3)nc2n1C1CCCC1` (centres unmarked) [SIAIS219102, 7-cyclopentyl-2-((5-(4-(4-((2-(2,6-dioxopiperidin-3-yl)-1,3-dioxoisoindolin-4-yl)thio)butanoyl)piperazin-1-yl)pyridin-2-yl)amino)-N,N-dimethyl-7H-pyrrolo[2,3-d]pyrimidine-6-carboxamide], 1 to 10 nM. Same read-out and setting: next, `CN(C)C(=O)c1cc2cnc(Nc3ccc(N4CCN(C(=O)CCCCSc5cccc6c5C(=O)N(C5CCC(=O)NC5=O)C6=O)CC4)cn3)nc2n1C1CCCC1` (centres unmarked) [SIAIS219103, 7-cyclopentyl-2-((5-(4-(5-((2-(2,6-dioxopiperidin-3-yl)-1,3-dioxoisoindolin-4-yl)thio)pentanoyl)piperazin-1-yl)pyridin-2-yl)amino)-N,N-dimethyl-7H-pyrrolo[2,3-d]pyrimidine-6-carboxamide]: under 1 nM; `CN(C)C(=O)c1cc2cnc(Nc3ccc(N4CCN(C(=O)CCCCCSc5cccc6c5C(=O)N(C5CCC(=O)NC5=O)C6=O)CC4)cn3)nc2n1C1CCCC1` (centres unmarked) [SIAIS219104, 7-cyclopentyl-2-((5-(4-(6-((2-(2,6-dioxopiperidin-3-yl)-1,3-dioxoisoindolin-4-yl)thio)hexanoyl)piperazin-1-yl)pyridin-2-yl)amino)-N,N-dimethyl-7H-pyrrolo[2,3-d]pyrimidine-6-carboxamide]: 1 to 10 nM. On the same count and under the same terms, the result for `CN(C)C(=O)c1cc2cnc(Nc3ccc(N4CCN(C(=O)COCCOCCSc5cccc6c5CN(C5CCC(=O)NC5=O)C6=O)CC4)cn3)nc2n1C1CCCC1` (centres unmarked) [SIAIS219107, 7-cyclopentyl-2-((5-(4-(2-(2-(2-((2-(2,6-dioxopiperidin-3-yl)-1-oxoisoindolin-4-yl)thio)ethoxy)ethoxy)acetyl)piperazin-1-yl)pyridin-2-yl)amino)-N,N-dimethyl-7H-pyrrolo[2,3-d]pyrimidine-6-carboxamide] reads 0.04 to 0.2 nM; that for `CN(C)C(=O)c1cc2cnc(Nc3ccc(N4CCN(C(=O)COCCOCCOCCSc5cccc6c5CN(C5CCC(=O)NC5=O)C6=O)CC4)cn3)nc2n1C1CCCC1` (centres unmarked) [SIAIS219108, 7-cyclopentyl-2-((5-(4-(2-(2-(2-(2-((2-(2,6-dioxopiperidin-3-yl)-1-oxoisoindolin-4-yl)thio)ethoxy)ethoxy)ethoxy)acetyl)piperazin-1-yl)pyridin-2-yl)amino)-N,N-dimethyl-7H-pyrrolo[2,3-d]pyrimidine-6-carboxamide], 0.04 to 0.2 nM; that for `CN(C)C(=O)c1cc2cnc(Nc3ccc(N4CCN(C(=O)COCCOCCOCCOCCSc5cccc6c5CN(C5CCC(=O)NC5=O)C6=O)CC4)cn3)nc2n1C1CCCC1` (centres unmarked) [SIAIS219109, 7-cyclopentyl-2-((5-(4-(14-((2-(2,6-dioxopiperidin-3-yl)-1-oxoisoindolin-4-yl)thio)-3,6,9,12-tetraoxatetradecanoyl)piperazin-1-yl)pyridin-2-yl)amino)-N,N-dimethyl-7H-pyrrolo[2,3-d]pyrimidine-6-carboxamide], 1 to 10 nM. As to `CN(C)C(=O)c1cc2cnc(Nc3ccc(N4CCN(C(=O)COCCOCCOCCOCCOCCSc5cccc6c5CN(C5CCC(=O)NC5=O)C6=O)CC4)cn3)nc2n1C1CCCC1` (centres unmarked) [SIAIS219110, 7-cyclopentyl-2-((5-(4-(17-((2-(2,6-dioxopiperidin-3-yl)-1-oxoisoindolin-4-yl)thio)-3,6,9,12,15-pentaoxaheptadecanoyl)piperazin-1-yl)pyridin-2-yl)amino)-N,N-dimethyl-7H-pyrrolo[2,3-d]pyrimidine-6-carboxamide], the DC50 was in the range of 0.04 to 0.2 nM. Regarding `CN(C)C(=O)c1cc2cnc(Nc3ccc(N4CCN(C(=O)COCCOCCSc5cccc6c5C(=O)N(C5CCC(=O)NC5=O)C6=O)CC4)cn3)nc2n1C1CCCC1` (centres unmarked) [SIAIS219112, 7-cyclopentyl-2-((5-(4-(2-(2-(2-((2-(2,6-dioxopiperidin-3-yl)-1,3-dioxoisoindolin-4-yl)thio)ethoxy)ethoxy)acetyl)piperazin-1-yl)pyridin-2-yl)amino)-N,N-dimethyl-7H-pyrrolo[2,3-d]pyrimidine-6-carboxamide], the DC50 fell in the range of 0.04 to 0.2 nM.

In the case of `CN(C)C(=O)c1cc2cnc(Nc3ccc(N4CCN(C(=O)COCCOCCOCCSc5cccc6c5C(=O)N(C5CCC(=O)NC5=O)C6=O)CC4)cn3)nc2n1C1CCCC1` (centres unmarked) [SIAIS219113, 7-cyclopentyl-2-((5-(4-(2-(2-(2-(2-((2-(2,6-dioxopiperidin-3-yl)-1,3-dioxoisoindolin-4-yl)thio)ethoxy)ethoxy)ethoxy)acetyl)piperazin-1-yl)pyridin-2-yl)amino)-N,N-dimethyl-7H-pyrrolo[2,3-d]pyrimidine-6-carboxamide], the DC50 is under 1 nM. Same read-out and setting: the result for `CN(C)C(=O)c1cc2cnc(Nc3ccc(N4CCN(C(=O)COCCOCCOCCOCCSc5cccc6c5C(=O)N(C5CCC(=O)NC5=O)C6=O)CC4)cn3)nc2n1C1CCCC1` (centres unmarked) [SIAIS219114, 7-cyclopentyl-2-((5-(4-(14-((2-(2,6-dioxopiperidin-3-yl)-1,3-dioxoisoindolin-4-yl)thio)-3,6,9,12-tetraoxatetradecanoyl)piperazin-1-yl)pyridin-2-yl)amino)-N,N-dimethyl-7H-pyrrolo[2,3-d]pyrimidine-6-carboxamide] reads 1 to 10 nM; that for `Cc1nc2c(F)cc(-c3nc(Nc4ccc(CN5CCN(C(=O)CSc6cccc7c6CN(C6CCC(=O)NC6=O)C7=O)CC5)cn4)ncc3F)cc2n1C(C)C` (centres unmarked) [SIAIS262164, 3-(4-((2-(4-((6-((5-fluoro-4-(4-fluoro-1-isopropyl-2-methyl-1H-benzo[d]imidazol-6-yl)pyrimidin-2-yl)amino)pyridin-3-yl)methyl)piperazin-1-yl)-2-oxoethyl)thio)-1-oxoisoindolin-2-yl)piperidine-2,6-dione], 0.5 to 5 nM.

Turning to `Cc1nc2c(F)cc(-c3nc(Nc4ccc(CN5CCN(C(=O)CCSc6cccc7c6CN(C6CCC(=O)NC6=O)C7=O)CC5)cn4)ncc3F)cc2n1C(C)C` (centres unmarked) [SIAIS262165, 3-(4-((3-(4-((6-((5-fluoro-4-(4-fluoro-1-isopropyl-2-methyl-1H-benzo[d]imidazol-6-yl)pyrimidin-2-yl)amino)pyridin-3-yl)methyl)piperazin-1-yl)-3-oxopropyl)thio)-1-oxoisoindolin-2-yl)piperidine-2,6-dione], the DC50 turned out to be 5 nM.

`Cc1nc2c(F)cc(-c3nc(Nc4ccc(CN5CCN(C(=O)CCCSc6cccc7c6CN(C6CCC(=O)NC6=O)C7=O)CC5)cn4)ncc3F)cc2n1C(C)C` (centres unmarked) [SIAIS262166, 3-(4-((4-(4-((6-((5-fluoro-4-(4-fluoro-1-isopropyl-2-methyl-1H-benzo[d]imidazol-6-yl)pyrimidin-2-yl)amino)pyridin-3-yl)methyl)piperazin-1-yl)-4-oxobutyl)thio)-1-oxoisoindolin-2-yl)piperidine-2,6-dione]: the DC50 fell in the range of 0.5 to 5 nM. On the same count and under the same terms, the result for `Cc1nc2c(F)cc(-c3nc(Nc4ccc(CN5CCN(C(=O)CCCCSc6cccc7c6CN(C6CCC(=O)NC6=O)C7=O)CC5)cn4)ncc3F)cc2n1C(C)C` (centres unmarked) [SIAIS262167, 3-(4-((5-(4-((6-((5-fluoro-4-(4-fluoro-1-isopropyl-2-methyl-1H-benzo[d]imidazol-6-yl)pyrimidin-2-yl)amino)pyridin-3-yl)methyl)piperazin-1-yl)-5-oxopentyl)thio)-1-oxoisoindolin-2-yl)piperidine-2,6-dione] reads 0.5 to 5 nM; that for `Cc1nc2c(F)cc(-c3nc(Nc4ccc(CN5CCN(C(=O)CCCCCSc6cccc7c6CN(C6CCC(=O)NC6=O)C7=O)CC5)cn4)ncc3F)cc2n1C(C)C` (centres unmarked) [SIAIS262168, 3-(4-((6-(4-((6-((5-fluoro-4-(4-fluoro-1-isopropyl-2-methyl-1H-benzo[d]imidazol-6-yl)pyrimidin-2-yl)amino)pyridin-3-yl)methyl)piperazin-1-yl)-6-oxohexyl)thio)-1-oxoisoindolin-2-yl)piperidine-2,6-dione], 0.05 to 0.5 nM.

Still in this test, the particulars now being: read-out: DC50(nM)/T-47D cell line, 24 h drug treatment.
Turning to `CN(C)C(=O)c1cc2cnc(Nc3ccc(N4CCN(C(=O)CCCCCCSc5cccc6c5C(=O)N(C5CCC(=O)NC5=O)C6=O)CC4)cn3)nc2n1C1CCCC1` (centres unmarked) [SIAIS219105, 7-cyclopentyl-2-((5-(4-(7-((2-(2,6-dioxopiperidin-3-yl)-1,3-dioxoisoindolin-4-yl)thio)heptanoyl)piperazin-1-yl)pyridin-2-yl)amino)-N,N-dimethyl-7H-pyrrolo[2,3-d]pyrimidine-6-carboxamide], the DC50 lay in the range of 0.04 to 0.2 nM. Still for that read-out and setting: next, `CN(C)C(=O)c1cc2cnc(Nc3ccc(N4CCN(C(=O)COCCSc5cccc6c5CN(C5CCC(=O)NC5=O)C6=O)CC4)cn3)nc2n1C1CCCC1` (centres unmarked) [SIAIS219106, 7-cyclopentyl-2-((5-(4-(2-(2-((2-(2,6-dioxopiperidin-3-yl)-1-oxoisoindolin-4-yl)thio)ethoxy)acetyl)piperazin-1-yl)pyridin-2-yl)amino)-N,N-dimethyl-7H-pyrrolo[2,3-d]pyrimidine-6-carboxamide]: 0.04 to 0.2 nM. The same measure, in the same setting: the result for `CN(C)C(=O)c1cc2cnc(Nc3ccc(N4CCN(C(=O)COCCSc5cccc6c5C(=O)N(C5CCC(=O)NC5=O)C6=O)CC4)cn3)nc2n1C1CCCC1` (centres unmarked) [SIAIS219111, 7-cyclopentyl-2-((5-(4-(2-(2-((2-(2,6-dioxopiperidin-3-yl)-1,3-dioxoisoindolin-4-yl)thio)ethoxy)acetyl)piperazin-1-yl)pyridin-2-yl)amino)-N,N-dimethyl-7H-pyrrolo[2,3-d]pyrimidine-6-carboxamide] reads under 1 nM.
